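Exposure lasted 48 hours, with cells grown in 96-well plates and compounds tested at five concentrations. TGI is the concentration that stops growth completely.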
How the values were obtained:
Assay in all cases: NCI anticancer screen, dose series, 48 h
[1] = system: DMS 114 small cell lung
[2] = system: SR leukemia
[3] = system: NCI-H522 lung
[4] = system: OVCAR-4 ovarian
[5] = system: A498 renal
[6] = system: SK-OV-3 ovarian
[7] = system: HOP-92 NSCLC
[8] = system: DLD-1 colon
[9] = system: MALME-3M melanoma
[10] = system: SK-MEL-5 melanoma
[11] = system: TK-10 renal
[12] = system: M14 melanoma
[13] = system: DMS 273 small cell lung
[14] = system: SN12C renal
[15] = system: RXF 393 renal
[16] = system: KM20L2 colon
[17] = system: PC-3 prostate
[18] = system: MCF7 breast
[19] = system: MDA-MB-231 breast
[20] = system: T-47D breast

Compound	TGI [1] [µM]	TGI [2] [µM]	TGI [3] [µM]	TGI [4] [µM]	TGI [5] [µM]	TGI [6] [µM]	TGI [7] [µM]	TGI [8] [µM]	TGI [9] [µM]	TGI [10] [µM]	TGI [11] [µM]	TGI [12] [µM]	TGI [13] [µM]	TGI [14] [µM]	TGI [15] [µM]	TGI [16] [µM]	TGI [17] [µM]	TGI [18] [µM]	TGI [19] [µM]	TGI [20] [µM]
Cc1ccc2c(c1)C(=O)N(N(C)C)CC(=O)N2	> 100	> 100	> 100	> 100	> 100	> 100	> 100	> 100	> 100	> 100	> 100	> 100	> 100	–	–	–	–	–	–	–
c1coc(CNc2ncnc3[nH]ncc23)c1	> 100	> 100	> 100	> 100	> 100	> 100	> 100	> 100	> 100	> 100	> 100	> 100	> 100	> 100	> 100	> 100	–	–	–	–
N#CN=[N+]([O-])c1ccc(C(=O)O)cc1	–	–	40.7	35.8	–	33	40.4	–	–	–	31.4	34	–	–	30.1	–	31.2	38.8	–	–
CSc1nc(NC2OCC(O)C(O)C2O)c(N)c(=O)[nH]1 (centres undefined)	> 100	–	> 100	> 100	> 100	> 100	> 100	> 100	> 100	> 100	–	–	> 100	> 100	> 100	> 100	–	> 100	–	–
CCOC(=O)NC(Nc1ncccn1)(C(=O)OCC)C(F)(F)F (centres undefined)	–	> 100	> 100	> 100	–	–	> 100	–	–	> 100	> 100	> 100	–	> 100	> 100	–	> 100	> 100	> 100	> 100
CCN(CC)CCNc1ccc2nnn3c4ccc(C)cc4c(=O)c1c23	21.3	13.1	20.5	25.2	29.3	25.8	20.7	25.9	25.7	22.5	28.8	26.4	–	22.3	–	19.3	–	–	–	–
CC(=O)OCC1=C(C(=O)O)N2C(=O)C(NC(=O)CSc3ccncc3)C2SC1 (centres undefined)	–	> 100	> 100	–	> 100	> 100	> 100	–	> 100	> 100	–	> 100	–	> 100	> 100	–	> 100	> 100	> 100	> 100
O=C1CSC(=S)N1	–	> 100	> 100	–	–	–	> 100	–	> 100	> 100	> 100	> 100	–	> 100	–	–	> 100	> 100	> 100	> 100
Brc1ccc(C2CC(c3cccc4ccccc34)=Nc3ccccc3S2)cc1 (centres undefined)	–	> 100	> 100	> 100	> 100	> 100	> 100	> 100	–	> 100	> 100	> 100	> 100	> 100	> 100	> 100	–	–	–	–
CC(C)(C)[Si](C)(C)OCC1OC(n2cnc3c(N)ncnc32)CC1O (centres undefined)	–	> 100	–	> 100	> 100	> 100	–	–	> 100	> 100	> 100	> 100	–	> 100	> 100	–	> 100	> 100	> 100	> 100
O=C1NC2=C(CCCC/C2=N\O)C12CCCCC2	> 100	> 100	–	> 100	> 100	> 100	–	> 100	> 100	–	> 100	> 100	–	> 100	> 100	> 100	–	–	–	–
Cc1cc2c(cc1C)OC(=O)CC2	–	> 100	> 100	> 100	> 100	–	> 100	–	> 100	> 100	> 100	> 100	–	> 100	> 100	–	> 100	> 100	> 100	> 100
CC(=O)c1ccc2c(c1)c1c(C)c3c[n+](C)ccc3c(C)c1n2C	25.6	–	> 100	54.4	46.5	> 87	69.2	> 100	33.7	> 47.8	–	–	18.8	4.9	42.8	> 100	–	> 29	–	–
